Tests used:
[1] = Analgesic activity was determined; type: functional
[2] = Relative potency was determined to 3-dimethyl prodine after brain penetration; type: functional

Row | Structure (SMILES) | ED50 [1] | Relative potency [2]
1 | CCC(=O)OC1(c2ccccc2)CCN(C)CC1 | 1 mg/kg | 1
2 | CCC(=O)OC1(c2ccccc2)CCN(C)CC1C (stereo unspecified) [ALPHAPRODINE] | 1.45 mg/kg | 1.24
3 | CCC(=O)O[C@@]1(c2ccccc2)CCN(C)C[C@@H]1C [BETAPRODINE] | 5.21 mg/kg | 1.77
